Data: patent US8318731B2, “Pyrrolopyrimidines” (Janssen Pharmaceutica NV, priority 2007, dated 2012)

What was measured:
HCT-116 = experiment: Cellular proliferation assay (Alamar blue), HCT-116; format: cell-based; details: Homo sapiens; HCT-116 cells; 10% FCS; 72 h with compound; Alamar blue 4 h; read-out: pIC50 HCT-116 (converted)
Procedure: (§1) Cellular proliferation of these compounds was tested on a panel of different cell lines in the presence of 10% FCS serum (37° C. and 5% (v/v) CO2). In a first step these cells were seeded and incubated for 24 hours in the absence of compound. In the second step the cells were incubated for 72 hours with the compounds to be tested for 72 hours. The viable cell number was finally assessed in a standard Alamar blue cell viability assay.
(§2) The viable cell number was assessed by incubation for either 4 h (HCT-116, H1299) 6 h (U87-MG) or 24 h (A2780, PC3, MDA-MB-231) with Alamar blue (Resazurin 9 μg/ml, K-Ferrocyanide 90 μM, K-Ferricyanide 90 μM) and the converted fluorescent product was quantified on a fluorescent plate readed (544 nm/590 nm). Effect of the compounds is calculated as of on control cells.

MDA-MB-231 = experiment: Cellular proliferation assay (Alamar blue), MDA-MB-231; format: cell-based; details: Homo sapiens, MDA-MB-231, MDA-MB-231 cells; 10% FCS; 72 h with compound; Alamar blue 24 h; read-out: pIC50 MDA/MB231 (converted)
Procedure: as §1, §2

A2780 = experiment: Cellular proliferation assay (Alamar blue), A2780; format: cell-based; details: Homo sapiens, A2780, A2780 cells; 10% FCS; 72 h with compound; Alamar blue 24 h; read-out: pIC50 A2780 (converted)
Procedure: as §1, §2

U87-MG = experiment: Cellular proliferation assay (Alamar blue), U87-MG; format: cell-based; details: Homo sapiens, U-87 MG; U87-MG cells; 10% FCS; 72 h with compound; Alamar blue 6 h; read-out: pIC50 U87MG (converted)
Procedure: as §1, §2

PLK4 (h) = target: T1, PLK4 (h) (Homo sapiens, UniProt O00444); experiment: PLK-4 human kinase scintillation proximity assay (SPA); format: biochemical; details: 1 μM ATP, 60 minutes at r.t., read-out: PLK4 pIC50 (converted)
T1 sequence (O00444 1-970): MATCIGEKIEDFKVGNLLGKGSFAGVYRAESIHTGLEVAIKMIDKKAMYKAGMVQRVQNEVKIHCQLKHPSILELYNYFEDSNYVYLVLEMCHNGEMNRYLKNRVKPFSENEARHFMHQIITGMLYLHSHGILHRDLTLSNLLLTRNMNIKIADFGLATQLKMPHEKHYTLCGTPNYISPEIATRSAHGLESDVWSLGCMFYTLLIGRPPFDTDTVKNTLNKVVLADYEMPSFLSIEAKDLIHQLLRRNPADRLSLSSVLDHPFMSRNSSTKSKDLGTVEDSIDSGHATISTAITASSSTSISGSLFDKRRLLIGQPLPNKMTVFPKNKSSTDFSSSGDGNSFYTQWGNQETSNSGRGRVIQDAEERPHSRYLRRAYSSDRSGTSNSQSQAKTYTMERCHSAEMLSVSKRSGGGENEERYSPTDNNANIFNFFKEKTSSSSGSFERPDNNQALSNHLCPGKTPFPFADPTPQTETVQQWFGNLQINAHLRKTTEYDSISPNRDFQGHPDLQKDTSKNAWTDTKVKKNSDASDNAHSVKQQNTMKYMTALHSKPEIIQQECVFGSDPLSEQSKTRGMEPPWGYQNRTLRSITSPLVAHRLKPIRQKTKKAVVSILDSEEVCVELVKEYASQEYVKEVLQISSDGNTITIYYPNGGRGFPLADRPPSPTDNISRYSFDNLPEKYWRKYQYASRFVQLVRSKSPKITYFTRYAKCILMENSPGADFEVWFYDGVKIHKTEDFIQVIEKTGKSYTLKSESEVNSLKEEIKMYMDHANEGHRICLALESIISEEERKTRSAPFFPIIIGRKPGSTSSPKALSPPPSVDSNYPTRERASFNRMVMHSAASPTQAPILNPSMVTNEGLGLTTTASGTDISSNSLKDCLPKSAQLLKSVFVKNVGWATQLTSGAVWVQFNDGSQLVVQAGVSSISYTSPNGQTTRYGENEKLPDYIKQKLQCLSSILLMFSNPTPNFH
Procedure: The in vitro inhibition of a panel of kinases was assessed using either the scintillation proximity assay (SPA) as described by Cook, N. D. et al., Advances in Experimental Medicine and Biology (1991), 36; p. 525-528.
In the SPA technology the activity of the kinase of interest is measured using an appropriate biotinylated substrate that is incubated with the aforementioned kinase protein in the presence of (^33P) radiolabeled ATP. (^33P) Phosphorylation of the substrate is subsequently measured through binding of the phosphorylated substrate to streptavidine coated beads that are based on the scintillant poly(vinyl toluene) (PVT-Beads). The scintillation intensity is detected by imaging on Leadseeker.
All kinases are pre-diluted to a 10× working concentration prior to addition into the assay. The composition of the dilution buffer for each kinase is detailed below.
In a final reaction volume of 30 μl, PLK4 (h) (19 μg/ml) is incubated with 50 mM Hepes pH 8.0, 10 mM MgCl2, 50 mM NaCl, 1 mM NaF, 1 mM DTT, 10 μM of peptide Biotin-RPRGQRDSSYYWE-OH, 1 μM ATP and 2 nM [γ-^33P-ATP] (6.0 μCi/ml). After incubation of 60 minutes at r.t., the reaction is stopped by addition of 40 μL of stop solution containing 8.7 mM EDTA, BSA 0.17%, 0.17% Triton X-100, 1.7 mg/ml SPA beads (GE-healthcare). The plate is centrifuged and read for Scintillation imaging on Leadseeker.

PC3 = experiment: Cellular proliferation assay (Alamar blue), PC3; format: cell-based; details: Homo sapiens, PC-3, PC-3 cells; 10% FCS; 72 h with compound; Alamar blue 24 h; read-out: pIC50 PC-3 (converted)
Procedure: as §1, §2

H1299 = experiment: Cellular proliferation assay (Alamar blue), H1299; format: cell-based; details: Homo sapiens, NCI-H1299, H1299 cells; 10% FCS; 72 h with compound; Alamar blue 4 h; read-out: pIC50 H1299 (converted)
Procedure: as §1, §2

| Compound | IC50 (HCT-116) [µM] | IC50 (MDA-MB-231) [µM] | IC50 (A2780) [µM] | IC50 (U87-MG) [µM] | IC50 (PLK4 (h)) [µM] | IC50 (PC3) [µM] | IC50 (H1299) [µM] |
| --- | --- | --- | --- | --- | --- | --- | --- |
| CN1CCCN(C)C(=O)COc2cc(ccc2OCC(=O)NC2CCCCC2)Nc2ncnc3[nH]cc(c23)C1 [Compound 118] | 0.631 | 6.31 | 0.398 | 3.16 | 0.0251 | 6.31 | 1.58 |
| COc1ccc2cc1N(C)CC(=O)N(C)CCCN(C)Cc1c[nH]c3ncnc(c13)N2 [Compound 153] | 1.58 | 7.94 | 2 | 3.16 |  | 6.31 | 3.98 |
| COc1ccc2cc1OCCCC(=O)N1CCN(CC1)Cc1c[nH]c3ncnc(c13)N2 [Compound 105] | > 10 | > 10 | > 10 | > 10 | 1 | > 10 | > 10 |
| CN1CCCN(C)C(=O)COc2cccc(c2)Nc2ncnc3[nH]cc(c23)C1 [Compound 120] | 0.398 | 1 | 0.501 | 0.794 | 0.0316 | 1 | 1 |
| COc1ccc2cc1OCCCC(=O)N(C)CCCN(C)Cc1c[nH]c3ncnc(c13)N2 [Compound 17] | > 10 | > 10 | > 10 | > 10 | 0.251 | > 10 | > 10 |
| CN1CCCN(C)C(=O)COc2cc(ccc2OCCCN2CCOCC2)Nc2ncnc3[nH]cc(c23)C1 [Compound 137] | 1.26 | 3.16 | 0.794 | 1.58 | 0.398 | 3.16 | 3.98 |
| CN1CCCN(C)C(=O)COc2cc(ccc2OCCCNc2ccc(Cl)cc2)Nc2ncnc3[nH]cc(c23)C1 [Compound 142] | 0.631 | > 10 | 0.398 | 3.16 | 0.0794 | 10 | 2 |
| COc1cc2cc(c1OC)OCCCCC(=O)N(C)CCN(C)Cc1c[nH]c3ncnc(c13)N2 [Compound 87] | > 10 | > 10 | > 10 | > 10 | > 10 | > 10 | > 10 |
| CN1CCCN(C)C(=O)COc2cc(ccc2OC(F)F)Nc2ncnc3[nH]cc(c23)C1 [Compound 76] | 2 | > 10 | 0.794 | 2.51 | 0.0398 | 2 | 1.26 |
| COc1ccc2cc1OCC(=O)N(C1CCCCC1)CCCN(C)Cc1c[nH]c3ncnc(c13)N2 [Compound 64] | > 10 | > 10 | > 10 | > 10 | 0.251 | > 10 | > 10 |
| COc1ccc2cc1OCCCCCC(=O)N(C)CCCN(C)Cc1c[nH]c3ncnc(c13)N2 [Compound 18] | > 10 | > 10 | > 10 | > 10 | 0.398 | > 10 | > 10 |
